The results in this text go back to patent US11739122B2, “Glycopeptide antibiotic compounds, methods for producing the same, and uses thereof” (Academia Sinica, priority 2019, dated 2023).

Converted amounts (≈) assume the structure as drawn.

Series [1] relates to S. aureus ATCC 29213. The experiment in a line: MIC, broth microdilution. In kind it is cell-based, Staphylococcus aureus. The following applies: SA ATCC 29213. The procedure, abridged:
(§1)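 Step one, pick colonies from 18-24 h agar plates into broth until 0.5 McFarland turbidity; step two, dilute to approximately 1×10^8 CFU mL^−1; step three, incubate at 37° C for 18-24 h and score visible growth.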

In series [2] the test system is MRSA ATCC 700787 VRSA. The experiment in a line: MIC, broth microdilution. In kind it is cell-based, Staphylococcus aureus. In outline:
as §1

In series [3] the test system is MRSA ATCC 700698 hVISA. The experiment in a line: MIC, broth microdilution. Particulars: MRSA ATCC 700698 hVISA. It is filed as cell-based, Staphylococcus aureus. In outline: as §1
The subject of series [4] is E. faecalis ATCC 29302. In words: MIC, broth microdilution. In kind it is cell-based. Particulars: EF ATCC 29302. In outline: as §1
In series [5] the test system is AB ATCC 19606. In words: Minimal bactericidal concentration (MBC). In kind it is cell-based, Acinetobacter baumannii. The procedure:
(§2) Minimal Bactericidal Concentration (MBC) Determination
(§3) The MBC test is an extension of the MIC examination. MBC was determined by performing subcultures on antibiotic-free agar from both the well where there was no visible growth at the MIC of a tested antibiotic and from the positive control well (with inoculum but without compounds). The plates were incubated at 37° C. for 18-24 hours. The MBC was taken as the lowest concentration of the test compound that results in more than 99.9% reduction of viable bacteria. If MBC was one or two dilutions above a given MIC value (MBC/MIC ratio was less than or equal to four), the antibiotic was considered bactericidal against the test organism.

For series [6], the system named is A. baumannii ATCC 19606. The experiment in a line: Thin-section TEM, cell wall morphology. It is filed as cell-based, Acinetobacter baumannii. Particulars: AB ATCC 19606; 24 50 μM, colistin 3.2 μM, combination 25 μM each.
In series [7] the test system is A. baumannii ATCC 19606. The experiment in a line: In vivo efficacy, intranasal A. baumannii infection. The arrangement: species or system mice. The following applies: BAL fluid, 24 hours post-inoculation. As to the method: (§4) In Vivo Efficacy of r6,N-Acyl-Glc Tei Analogs
(§5) Female C57BL/6 mice (6 weeks of age; about 16-19 g, 3-5 mice per group) were intraperitoneally inoculated with 300 μL of MRSA ATCC 700787 suspension (about 10^7 CFUmL^−1). For intranasal A. baumannii (ATCC 19606) inoculation, mice were anesthetized, and inoculated intranasally with about 10^7-10^8 CFUmL^−1 A. baumannii in 50 μL of PBS. Treatments were started 1 hour after the bacterial challenge. The dose administration to mice was set as follows: teicoplanin (1) or r6,C8-Tei analog (14) 20 mgkg^−1 was intraperitoneally injected to MRSA-infected mice; amikacin (15 mgkg^−1), teicoplanin (1) (30 mgkg^−1), kanamycin (30 mgkg^−1) or r1,Me2-r6,guanidino-C8 analog (24) (30 mgkg^−1) was intraperitoneally injected to AB-infected mice. To assess bacteraemia, the test animals were sacrificed to collect 1 mL of peritoneal fluid (PF) for MRSA counting or the lungs were lavaged to collect 0.6 mL bronchoalveolar lavage (BAL) fluid for A. baumannii counting.
For AB (ATCC 19606), female C57BL/6 mice were first anesthetized by intraperitoneal injection of zoletil and then intranasally inoculated with 50 μL of bacteria in a PBS solution (about 10^7-10^8 CFUmL^−1). The treatment started 1 hour post-infection with a single dose of compound 24 (30 mgkg^−1), compound 1 (30 mgkg^−1), amikacin (15 mgkg^−1), or kanamycin (30 mgkg^−1), where saline/compound 1 and amikacin/kanamycin respectively served as negative and positive controls. To assess the density of bacteraemia, the lungs of mice were lavaged to collect 0.6 mL bronchoalveolar lavage (BAL) fluid from each mouse at 24 hours post-inoculation. For saline/compound 1 treated controls, the bacterial load was counted (about 4 log CFUmL^−1, FIG. 4B), where the bacterial load was reduced by 0.5 or 1 log CFUmL^−1 with the treatment of amikacin/kanamycin or compound 24, respectively.

Series [8] relates to MRSA ATCC 700787. In words: Minimal bactericidal concentration (MBC). In kind it is cell-based, Staphylococcus aureus. As to the method:
as §2, §3

Series [9] has as its system VRE ATCC 700802 (vanB). In words: MIC, broth microdilution. Particulars: VRE ATCC 700802 (vanB). In kind it is cell-based, enterococci. The procedure, abridged:
as §1

Series [10] concerns VRE ATCC 700425 (vanC). In words: MIC, broth microdilution. It is filed as cell-based, enterococci. Particulars: VRE ATCC 700425 (vanC). The procedure, abridged:
as §1

In series [11] the test system is VRE ATCC 700221 (vanA). The experiment in a line: MIC, broth microdilution. The following applies: VRE ATCC 700221 (vanA). It is filed as cell-based, enterococci. The procedure, abridged:
as §1

Series [12] has as its system A. baumannii ATCC 19606. In words: MIC, broth microdilution. It is filed as cell-based, Acinetobacter baumannii. The procedure, abridged: as §1
Series [13] concerns HEK293T cells. In words: Alamar Blue cell viability assay. The following applies: up to 100 μgmL^−1; 2 and 24 h. It is filed as cell-based, human. As to the method: The Alamar Blue (AB) assay, which includes a redox indicator that changes color or emits fluorescence in response to a metabolic activity, was used to assess in vitro mammalian cell cytotoxicity (human embryonic kidney cells (HEK293T)) upon an antibiotic treatment. 2×10^5 cellsmL^−1 were allowed to adhere on 96-well plates overnight at 37° C. in a humidified incubator (5% CO2 atmosphere). Tested compounds were dissolved in 50% DMSO to make 1 mgmL^−1 of a stock solution. Cells were separately aliquoted with 5 μL of a test compound (final concentration: 100 μgmL^−1) and incubated. PBS and 50% DMSO, which was used to dissolve compounds, served as a control. Cell viability was triplicated and assessed at 2 and 24 hour time points for each test compound, on which the measurements followed the manufacturer protocol.

The test system of series [14] is MRSA ATCC 700789 VRSA. In words: MIC, broth microdilution. In kind it is cell-based, Staphylococcus aureus. Particulars: MRSA ATCC 700789 VRSA. The procedure, abridged: as §1
The test system of series [15] is MRSA ATCC BAA-44. In words: MIC, broth microdilution. It is filed as cell-based, Staphylococcus aureus. The following applies: MRSA ATCC BAA-44. In outline:
as §1

In series [16] the test system is MRSA ATCC BAA-39. In words: MIC, broth microdilution. It is filed as cell-based, Staphylococcus aureus. Particulars: MRSA ATCC BAA-39. In outline:
as §1

Series [17] concerns MRSA ATCC BAA-38. In words: MIC, broth microdilution. The following applies: MRSA ATCC BAA-38. It is filed as cell-based, Staphylococcus aureus. In outline: as §1
Series [18] has as its system MRSA ATCC 43300. The experiment in a line: MIC, broth microdilution. In kind it is cell-based, Staphylococcus aureus. The following applies: MRSA ATCC 43300. In outline:
as §1

In series [19] the test system is MRSA ATCC 700787. In words: Thin-section TEM, cell wall morphology. In kind it is cell-based, Staphylococcus aureus. The procedure: Thin-Section Transmission Electron Microscopy (TEM)
An overnight cultured MRSA ATCC 700787, VRE ATCC 700221 or A. baumannii ATCC 19606 was individually sub-cultured into a fresh medium. Bacteria at the exponential phase were treated with a given test compound at a concentration of 4×MIC for 1-4 hour at 37° C. and followed by wash and resuspension in PBS. Bacteria cells for the TEM analysis were prepared as follows: Cells were fixed with 2.5% glutaraldehyde for 30 minutes. After the fixation, cells were washed twice with PBS and fixed with 1% osmium tetraoxide for another 30 minutes. All the buffer was removed with distilled water. The cells were then stained with 1% uranyl acetate and dehydrated with a graded ethanol solution. Cells were embedded in resin. Finally, each sample was cut into thin slices of approximately 90 nm with a glass knife and stained with uranyl acetate. The images of bacterial morphological were recorded.
The cell wall/membrane apparently is the targets, while the extent of damage depends on what compound imposes on the strain. […] Cell wall thickening has been a common phenotype in clinical MRSA isolates, which may well be a phenotypic determinant for VRSA. The systemic cell-wall damage may account for the cell-wall biosynthesis crippled all over the cell surface in cell-wall thickening strains, thus leading cells to lysis as a result of the osmotic pressure of cytoplasm.

Series [20] concerns MRSA ATCC 700787. In words: In vivo efficacy, intraperitoneal MRSA infection. The following applies: peritoneal fluid, 24 hours post-inoculation, single dose 20 mgkg^−1 IP. The arrangement: species or system mice. As to the method: as §4, §5
For MRSA, mice were inoculated intraperitoneally (IP) with 0.3 mL of MRSA ATCC 700787 suspension (about 10^7 CFUmL^−1). […] For the saline treated control, bacterial count was calculated (about 7.5 log CFUmL^−1, FIG. 4A). […]

Where [21] appears, read: A. baumannii ATCC 19606, Table 3, first figure of cell.
[22] abbreviates: A. baumannii ATCC 19606, Table 3, second figure of cell.

Take `CN(C)[C@H]1C(=O)N[C@@H]2Cc3ccc(c(Cl)c3)Oc3cc4cc(c3O)Oc3ccc(cc3Cl)[C@@H](O[C@@H]3O[C@H](CO)[C@@H](O)[C@H](O)[C@H]3NC(=O)CCCCCCCNC(=N)N)[C@@H]3NC(=O)[C@H](NC(=O)[C@@H]4NC(=O)[C@@H](NC2=O)c2cc(O)cc(c2)Oc2cc1ccc2O)c1ccc(O)c(c1)-c1c(O)cc(O)cc1[C@@H](C(=O)O)NC3=O` [Compound 24, r1,Me2-r6,C8-guanidino-Tei]: the MIC in [1] is 0.5 µg/mL (≈ 0.318 µM); in series [2] (MRSA ATCC 700787, Table 4) it was 0.016 µg/mL (≈ 0.0102 µM); in [2] (MRSA ATCC 700787 VRSA), 0.016 µg/mL (≈ 0.0102 µM); in [3], 0.031 µg/mL (≈ 0.0197 µM); in series [4] it was 0.5 µg/mL (≈ 0.318 µM); in series [9] it was 4 µg/mL (≈ 2.55 µM). The minimum inhibitory concentration (MIC) is 8 µg/mL (≈ 5.09 µM) in series [10]; more than 16 µg/mL in series [11]; 25 µM in [12] (setting [21]); 39.24 µg/mL in [12] (setting [22]); 39.24 µg/mL in series [12] (AB ATCC 19606, Table 4). The MBC in series [5] was determined as 39.24 µg/mL (≈ 25 µM); in series [8] it was 0.031 µg/mL (≈ 0.0197 µM). The figures for the MBC/MIC in series [5] and in series [8] were 1 and 2, respectively. The “cell membrane/cell wall morphology by TEM” value in series [6] is reported as “intactness of cell membrane/cell wall was severely damaged”. In [7] (24 and kanamycin 30, amikacin 15 mgkg^−1), the “bacterial load reduced by” value is listed as 1 log CFUmL^−1. The “MIC on AB” value in [12] (A. baumannii ATCC 19606) came out at 39.24 µg/mL (≈ 25 µM). Further, the “cytotoxicity to HEK293T cells” value in series [13] was “did not exhibit any observable toxicity”.

With “teicoplanin [Compound 1, reference compound]”, the minimal inhibitory concentration (MIC) in series [1] came to 0.25 µg/mL; in series [2] (MRSA ATCC 700787 VRSA) it was 8 µg/mL; in [14] it was 4 µg/mL; in series [3], 4 µg/mL; in series [15], 0.5 µg/mL; in series [16], 0.5 µg/mL. The MIC is 0.25 µg/mL in series [17]; 0.25 µg/mL in series [18]; 0.125 µg/mL in series [4]; 0.5 µg/mL in series [9]; 1 µg/mL in series [10]; more than 128 µg/mL in [11]. In addition, the MIC turned out to be 100 µM in series [12] (setting [21]) and 187.97 µg/mL in [12] (setting [22]). Further, in series [7] (30 mgkg^−1), the bacterial load entry was “about 4 log CFUmL^−1”. Further, in [19], the “cell wall morphology by TEM” value is reported as “loose”. In addition, the “cytotoxicity to HEK293T cells” value in [13] is listed as “did not exhibit any observable toxicity”. Also, in series [20], the “bacterial load reduced by” value is reported as 1.5 log CFUmL^−1.
